Measurements reported in paper PMC5891627, “Binding Specificity of Two PBPs in the Yellow Peach Moth Conogethes punctiferalis (Guenée)” (Frontiers in Physiology, 2018).

Tests used:
CpunPBP5 = CpunPBP5 (Conogethes punctiferalis, UniProt A0A0M4FIS7); assay: Fluorescence displacement (competitive, 1-NPN) binding assay; conditions: for IC50 / Kd / activity at 6000 µM: pH = 7.4; for IC50: 1-NPN 2 μM as fluorescent reporter, 2 μM protein, read-out: IC50; for Kd: calculated from IC50: KD = [IC50]/(1+[1-NPN]/K1-NPN), read-out: KD (μM), calculated dissociation constant; for binding affinity to CpunPBP5 (in words): ranking among the 24 tested ligands; for activity at 6000 µM: ratio of fluorescence intensity at the pheromone concentration of 6 mM to the initial fluorescence intensity, read-out: Int (%)
Experimental: (§1) The fluorescence intensity was recorded on a FluoroMax-4 spectrophotometer (Horiba Scientific, USA) at room temperature using a 1 cm light path fluorimeter quartz cuvette. The fluorescent probe N-phenyl-1-naphthylamine (1-NPN) and all the tested chemicals were dissolved in HPLC purity methanol. The final concentration was prepared 1 mM. […] The fluorescence of 1-NPN was excited at 337 nm and emission spectra were recorded between […]. […] The GraphPad Prism 5 (GraphPad Software, Inc.) was used to estimate the K1−NPN (KD of complex protein /1-NPN) values by nonlinear regression for a unique site of binding. It was assumed that the proteins were 100% active, with a stoichiometry of 1:1 (protein:ligand) at saturation. […] In the equation, [1-NPN] is the free concentration of 1-NPN, and K1−NPN is the dissociation constant of the complex protein /1-NPN.

CpunPBP2 = CpunPBP2 (Conogethes punctiferalis, UniProt A0A1D6X8W8); assay: as above; conditions: for IC50 / Kd / activity at 6000 µM: pH = 7.4; for IC50: 1-NPN 2 μM as fluorescent reporter, 2 μM protein, read-out: IC50; for Kd: calculated from IC50: KD = [IC50]/(1+[1-NPN]/K1-NPN), read-out: KD (μM), calculated dissociation constant; for binding affinity to CpunPBP2 (in words): ranking among the 24 tested ligands; for activity at 6000 µM: ratio of fluorescence intensity at the pheromone concentration of 6 mM to the initial fluorescence intensity, read-out: Int (%)
Experimental: as §1

[1] = biological target: CpunPBP5-m2 (CpunPBP5-Phe12 mutant) (Conogethes punctiferalis, UniProt A0A0M4FIS7, F37Y); assay: Fluorescence displacement binding assay of mutants
Experimental: (§2) The fluorescence intensity was recorded on a FluoroMax-4 spectrophotometer (Horiba Scientific, USA) at room temperature using a 1 cm light path fluorimeter quartz cuvette. The fluorescent probe N-phenyl-1-naphthylamine (1-NPN) and all the tested chemicals were dissolved in HPLC purity methanol. The final concentration was prepared 1 mM. To measure the affinity of florescent ligand 1-NPN to each protein, a 2 μM solution of the protein in 50 mM Tris-HCl, pH 7.4, was titrated with aliquots of 1 mM ligand in methanol to final concentrations of 1–8 μM. The fluorescence of 1-NPN was excited at 337 nm and emission spectra were recorded between […] and 450 nm. The affinity of other ligands was measured in competitive binding assays, using 1-NPN as the fluorescent reporter at 2 μM concentration and different concentrations of each ligands. The GraphPad Prism 5 (GraphPad Software, Inc.) was used to estimate the K1−NPN (KD of complex protein /1-NPN) values by nonlinear regression for a unique site of binding. It was assumed that the proteins were 100% active, with a stoichiometry of 1:1 (protein:ligand) at saturation. For other competitor ligands, the dissociation constants were calculated from the corresponding IC50 (concentrations of ligands halving the initial fluorescence value of 1-NPN) values using Microsoft Office Excel 2010, with the formula: KD = [IC50]/(1+[1-NPN]/K1−NPN). In the equation, [1-NPN] is the free concentration of 1-NPN, and K1−NPN is the dissociation constant of the complex protein /1-NPN.
(§3) Four mutants of CpunPBP2 and four mutants of CpunPBP5 were developed using the QuikChange Lightning Site-Directed Mutagenesis Kit (Stratagene, USA). The mutational primers were designed manually. Mutation sites are underlined in Table S2. The CpunPBP2/pGEM-T Easy construct was used as a template. The PCR conditions were 95°C for 5 min, followed by 30 cycles of 95°C for 30 s, 58°C for 30 s and 68°C for 1 min, and final extension at 72°C for 10 min. The correct insertion of mutation was subcloned into pGEM-T Easy vector (TransGen, Beijing, China). The expression system and fluorescence binding assay were conducted as mentioned for wild type proteins.
(§4) Supplementary file Image3.jpg: Figure S3 SDS-PAGE analyses of purified CpunPBP2 and CpunPBP5 with their mutants. M: marker protein. (A)1:CpunPBP2 original protein. (A)2: CpunPBP2-Phe9 mutant (CpunPBP2-m1). (A)3: CpunPBP2-Phe33 mutant (CpunPBP2-m2). (A)4: CpunPBP2-Ser53 mutant (CpunPBP2-m3). (A)5: CpunPBP2-Phe115 mutant (CpunPBP2-m4). (B)1:CpunPBP5 original protein. (B)2: CpunPBP5-Ser9 mutant (CpunPBP5-m1). (B)3: CpunPBP5-Phe12 mutant (CpunPBP5-m2). (B)4: CpunPBP5-Val115 mutant (CpunPBP5-m3). (B)5: CpunPBP5-Arg120 mutant (CpunPBP5-m4). Click here for additional data file.

[2] = biological target: CpunPBP2-m1 (CpunPBP2-Phe9 mutant) (Conogethes punctiferalis, UniProt A0A1D6X8W8, F33Y); assay: Fluorescence displacement binding assay of mutants; conditions: for Kd: read-out: KD, calculated dissociation constant
Experimental: as §2, §3, §4

[3] = biological target: CpunPBP2-m2 (CpunPBP2-Phe33 mutant) (Conogethes punctiferalis, UniProt A0A1D6X8W8, F57Y); assay: Fluorescence displacement binding assay of mutants; conditions: for Kd: read-out: KD, calculated dissociation constant
Experimental: as §2, §3, §4

[4] = biological target: CpunPBP5-m4 (CpunPBP5-Arg120 mutant) (Conogethes punctiferalis, UniProt A0A0M4FIS7, R145K); assay: Fluorescence displacement binding assay of mutants
Experimental: as §2, §3, §4

[5] = biological target: CpunPBP5-m3 (CpunPBP5-Val115 mutant) (Conogethes punctiferalis, UniProt A0A0M4FIS7, V140A); assay: Fluorescence displacement binding assay of mutants
Experimental: as §2, §3, §4

[6] = biological target: CpunPBP2-m3 (CpunPBP2-Ser53 mutant) (Conogethes punctiferalis, UniProt A0A1D6X8W8, S77Y); assay: Fluorescence displacement binding assay of mutants; conditions: for Kd: read-out: KD, calculated dissociation constant
Experimental: as §2, §3, §4

[7] = biological target: CpunPBP2-m4 (CpunPBP2-Phe115 mutant) (Conogethes punctiferalis, UniProt A0A1D6X8W8, F139Y); assay: Fluorescence displacement binding assay of mutants; conditions: for Kd: read-out: KD, calculated dissociation constant
Experimental: as §2, §3, §4

[8] = biological target: CpunPBP5-m1 (CpunPBP5-Ser9 mutant) (Conogethes punctiferalis, UniProt A0A0M4FIS7, S34T); assay: Fluorescence displacement binding assay of mutants
Experimental: as §2, §3, §4

yellow peach moth males = system: yellow peach moth males; design: method as in Liu et al., [1994]; conditions: ref Liu et al., [1994]; cited from earlier work

CpunPBP5-m3 (CpunPBP5-Val115 mutant), sequence (A0A0M4FIS7 entry or part of it V140A): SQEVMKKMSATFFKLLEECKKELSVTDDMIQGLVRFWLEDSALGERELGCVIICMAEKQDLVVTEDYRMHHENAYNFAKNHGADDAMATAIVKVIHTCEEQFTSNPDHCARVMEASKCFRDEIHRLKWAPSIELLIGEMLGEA
CpunPBP2-m3 (CpunPBP2-Ser53 mutant), sequence (A0A1D6X8W8 entry or part of it S77Y): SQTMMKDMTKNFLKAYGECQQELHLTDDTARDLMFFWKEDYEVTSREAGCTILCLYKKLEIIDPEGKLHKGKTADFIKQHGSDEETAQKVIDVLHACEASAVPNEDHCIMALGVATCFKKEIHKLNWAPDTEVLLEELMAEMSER
CpunPBP5, sequence (A0A0M4FIS7 entry or part of it): as the sequence (A0A0M4FIS7 entry or part of it V140A) above, with A115V counted along it
CpunPBP2-m2 (CpunPBP2-Phe33 mutant), sequence (A0A1D6X8W8 entry or part of it F57Y): as the sequence (A0A1D6X8W8 entry or part of it S77Y) above, with F36Y, Y56S counted along it
CpunPBP2, sequence (A0A1D6X8W8 entry or part of it): as the sequence (A0A1D6X8W8 entry or part of it S77Y) above, with Y56S counted along it
CpunPBP5-m4 (CpunPBP5-Arg120 mutant), sequence (A0A0M4FIS7 entry or part of it R145K): as the sequence (A0A0M4FIS7 entry or part of it V140A) above, with A115V, R120K counted along it
CpunPBP5-m2 (CpunPBP5-Phe12 mutant), sequence (A0A0M4FIS7 entry or part of it F37Y): as the sequence (A0A0M4FIS7 entry or part of it V140A) above, with F12Y, A115V counted along it
CpunPBP5-m1 (CpunPBP5-Ser9 mutant), sequence (A0A0M4FIS7 entry or part of it S34T): as the sequence (A0A0M4FIS7 entry or part of it V140A) above, with S9T, A115V counted along it
CpunPBP2-m1 (CpunPBP2-Phe9 mutant), sequence (A0A1D6X8W8 entry or part of it F33Y): as the sequence (A0A1D6X8W8 entry or part of it S77Y) above, with F12Y, Y56S counted along it
CpunPBP2-m4 (CpunPBP2-Phe115 mutant), sequence (A0A1D6X8W8 entry or part of it F139Y): as the sequence (A0A1D6X8W8 entry or part of it S77Y) above, with Y56S, F118Y counted along it

Row | Compound | IC50 (CpunPBP5) [nM] | Kd (CpunPBP5) [µM] | binding affinity to CpunPBP5 (in words) (CpunPBP5) | activity at 6000 µM (CpunPBP5) [%] | IC50 (CpunPBP2) [nM] | Kd (CpunPBP2) [µM] | binding affinity to CpunPBP2 (in words) (CpunPBP2) | activity at 6000 µM (CpunPBP2) [%] | IC50 [1] [nM] | Kd [1] [nM] | IC50 [2] [nM] | Kd [2] [nM] | IC50 [3] [nM] | Kd [3] [nM] | IC50 [4] [nM] | Kd [4] [nM] | IC50 [5] [nM] | Kd [5] [nM] | IC50 [6] [nM] | Kd [6] [nM] | further results
1 | CCCCC/C=C/CCCCCCCCC=O [E10-16:Ald, (E)-10-hexadecenal] | 1330 ± 60 | 0.6 ± 0.02 | highest binding ability | 40 ± 1.53 | 940 ± 30 | 0.4 ± 0.01 | highest binding ability | 39.5 ± 0.83 | 2730 ± 330 | 1490 ± 180 | 800 ± 20 | 220 ± 10 | 1180 ± 200 | 540 ± 90 | 2610 ± 780 | 1060 ± 320 | 3640 ± 100 | 1850 ± 160 | 1040 ± 130 | 110 ± 10 | binding affinity of mutant compared with CpunPBP5 (in words) ([5]; mutant CpunPBP5-m3 vs wild type): decreased the most; IC50 [7]: 30000 ± 17600 nM; Kd [7]: 19900 ± 11700 nM; IC50 [8]: 1630 ± 10 nM; Kd [8]: 720 nM
2 | CCCCCCCCCCCCCCCC=O [Hexadecanal] | 4510 ± 80 | 3.65 ± 0.07 | – | 46.83 ± 0.18 | 1840 ± 20 | 1.07 ± 0.01 | – | 34.03 ± 0.34 | – | – | – | – | – | – | – | – | – | – | – | – | attraction of males in field trials (yellow peach moth males): do not attract males
3 | CCCCC/C=C\CCCCCCCCC=O [Z10-16:Ald, (Z)-10-hexadecenal] | 970 ± 20 | 0.36 ± 0.01 | highest binding ability | 40.6 ± 1.39 | 980 ± 90 | 0.42 ± 0.04 | highest binding ability | 42.5 ± 1.88 | 1660 ± 30 | 900 ± 20 | 760 ± 10 | 210 | 790 ± 30 | 360 ± 10 | 2570 ± 550 | 1040 ± 220 | 1620 ± 40 | 820 ± 20 | 920 ± 50 | 100 | attraction of males in field trials (yellow peach moth males): do not attract males; binding capacity of mutant compared with CpunPBP5 (in words) ([4]; mutant CpunPBP5-m4 vs wild type): decreased considerably; IC50 [7]: 15400 ± 3180 nM; Kd [7]: 10200 ± 2110 nM; IC50 [8]: 1410 ± 20 nM; Kd [8]: 720 ± 10 nM
